{
  "source": "patent US20110195910A1",
  "about": "“USE OF TOCOTRIENOL COMPOSITION FOR THE PREVENTION OF CANCER” (DAVOS LIFE SCIENCE PTE. LTD., priority 2008, published 2011)",
  "format_in_all_cases": "cell-based",
  "key": {"[1]": {"test_system": "PC-3 cells", "assay": "Low-dose viability (MTT) and apoptotic markers, PC-3 cells", "details": "2.5 and 5 μg/ml", "protocol": "5.1.4 Cell viability assay—Cell viability upon γ-T3 treatment was measured by 3-(4,5-Dimethyl thiazol-2-yl)-2,5-diphenyl tetrazolium bromide (MTT) assay. Briefly, cells were seeded on 96 well-plates and treated with different concentrations of γ-T3 for the indicated time point. At the end of the treatment, MTT (Sigma, St. Louis, Mo.) was added into each well and incubated for 4 hrs at RT. DMSO was then added into each well to dissolve the formazan crystals. The plate was allowed to incubate for a further 5 min at RT and the optical density (OD) was measured at a wavelength of 570 nm on a Labsystem multiskan microplate reader (Merck Eurolab, Dietikon, Schweiz). All individual wells were set in triplicates. The percentage of cell viability was presented as OD ratio between the treated and untreated cells at indicated concentrations.\n5.1.5 Western blotting was carried out as described above under 1.1.5. The membrane was incubated with primary antibodies directed against CD133 (Miltenyi Biotec, Auburn, Calif.), Bcl-2, PARP, cleaved caspase 3, 7, 9 (Cell Signaling, Technology Inc, Beverly, Mass.), CD44 and β-actin (Santa Cruz Biotechnology, Santa Cruz, Calif.). After washing with TBS-T, the membrane was incubated with secondary antibody against either mouse or rabbit IgG and the signals were visualized using ECL plus western blotting system (Amersham, Piscataway, N.J.)."}, "[2]": {"test_system": "DU145 prostaspheres", "assay": "Treatment of pre-formed CSC-enriched DU145 prostaspheres", "details": "48 hrs", "protocol": "(A) CSC enriched prostaspheres were formed by maintaining DU145 cells in non-adherent culture supplemented with serum replacement medium for 14 days. The prostaspheres were then treated with either vehicle, γ-T3 (10, 20 μg/ml) or Docetaxel (Doc, 40 ng/ml) for 48 hrs. Spheroids were counted under microscope before and after treatment. Results were presented as mean % change in spheroid number to control±s.d. Note that spheroids were highly sensitive to γ-T3 treatment but resistant to high dose of Docetaxel. (B) Images of prostaspheres after 48 hrs treatment with vehicle, 40 ng/ml of Docetaxel and 10 μg/ml of γ-T3.\n5.1.7 Spheroid formation assay—Spheroid formation assay was performed with a protocol modified from previous study (Folkins C, p3560). Briefly, cells were first trypsinized, washed with 1× PBS and resuspended in DMEM F12 medium. Two hundred cells were added into each well of a 24-well-plate pre-coated with polyHEMA (Sigma, St. Louis, Mo.). Cells will be grown in DMEM/F12 mem (Invitrogen, Carlsbad, Calif.) supplemented with 4 μg/mL insulin (Sigma, St. Louis, Mo.), B27 (Invitrogen, Carlsbad, Calif.), 20 ng/mL EGF (Sigma, St. Louis, Mo.), and 20 ng/mL basic FGF (Invitrogen, Carlsbad, Calif.). Fresh medium with the above supplements was added every day. γ-T3 was added at indicated time points and the number of spheroids was counted at day 14 of the assay or at the end of the treatment. Each experiment was repeated in triplicates and each data point represented the mean and standard derivation."}, "[3]": {"test_system": "C32 cells", "assay": "Flow cytometry and western blotting, C32 cells", "protocol": "1.1.3 Flow cytometry—Cell cycle distribution was examined using flow cytometry. Briefly, cells were harvested by trypsinization, fixed in 70% ethanol at 4° C. overnight, and then resuspended in PBS. After incubation at 4° C. for overnight, 2×10^6 cells were incubated with in 20 μg/ml propidium iodide (PI) and 2 mg RNaseA for 15 minutes at 37° C. Cells were then examined by BD SLRII cytometer and the results were analyzed using ModFit software (Becton Dickinson, Mountain View, Calif.). Data were expressed as the percentage of cell cycle distribution in the entire population.\n1.1.5 Western blotting—Detailed protocols have been described previously and are known in the art. Briefly, cell lysates were prepared by suspending cell pellets in lysis buffer [50 mmol/l Tris-HCl (pH 8.0), 150 mmol/l NaCl, 1% NP40, 0.5% deoxycholate, 0.1% SDS, 1 mg/ml aprotinin, 1 μg/ml leupeptin and 1 mmol/l phenylmethylsulfonyl fluoride]. For nuclear protein extraction, NucBuster™ protein extraction kit was used. Protein concentration was measured using the DC Protein Assay kit (Bio-Rad, Hercules, Calif.). Equal amount of protein (30 μg) was loaded onto a 10% SDS polyacrylamide gel for electrophoresis and then transferred onto a polyvinylidene difluoride membrane (Amersham, Piscataway, N.J.). The membrane was then incubated with primary antibodies for 1 hr at room temperature against E-cadherin (BD Biosciences, Bedford, Mass.), α-catenin, β-catenin, γ-catenin, Id-1, Id-3, EGFR, phosphor-c-jun, phosphor-ATF2, cleaved PARP, vimentin, α-smooth muscle actin, twist (Santa Cruz Biotechnology, Calif.), phosphor-IkB-alpha (Ser32/36), phosphor-IKK alpha (Seri 80)/IKK beta (Ser181), phosphor-SAPK/JNK (Thr183/Tyr185) G9, SAPK/JNK, NF-kB p65 (5A5) (Cell Signaling Technology Inc, Beverly, Mass.), Snail (Abcam). After incubation with appropriate secondary antibodies, signals were visualized by ECL western blotting system (Amersham, Piscataway, N.J.). Expression of β-actin and histone H1 were assessed as an internal loading control for total cell lysate and nuclear protein lysate respectively."}},
  "data": [
    {"smiles": "CC(C)=CCC/C(C)=C/CC/C(C)=C/CCC1(C)CCc2cc(O)c(C)c(C)c2O1", "note": "(centres unmarked) [γ-T3, 7,8-dimethyltocotrienol]", "values": [
      {"measurement": "induction of apoptosis (viability assay and apoptotic markers)", "setting": "[1]", "result": "failed to detect a drastic induction of apoptosis"},
      {"measurement": "decrease of spheroid number", "setting": "[2]; 10 μg/ml", "result": 70, "unit": "%"},
      {"measurement": "decrease of spheroid number", "setting": "[2]; 20 μg/ml", "result": 76, "unit": "%"},
      {"measurement": "JNK phosphorylation", "setting": "[3]; C32", "result": "dosage-dependent increase in JNK phosphorylation activities"},
      {"measurement": "NF-κB p65 activity (nuclear translocation)", "setting": "[3]; C32", "result": "suppressed constitutive NF-κB p65 activity in a dose-dependent manner"},
      {"measurement": "activation of pro-apoptotic proteins (cleaved products)", "setting": "[3]; C32, different γ-T3 dosage, 24-hr", "result": "activation of procaspase 3, 7, 9 as well as PARP"},
      {"measurement": "Id-1 and Id-3 expression levels (EGF-R similar)", "setting": "[3]; C32, increasing dosages", "result": "significantly suppressed to almost undetectable level"},
      {"measurement": "sub-G1 cell population (flow cytometry)", "setting": "[3]; melanoma cells, γ-T3 at IC50, 24-hr", "result": "induction of sub-G1 cell population"}
    ]}
  ]
}
